Where two headings read alike, the source gives them in different places.
What was measured:
[1] = tested on: adult Sprague-Dawley rats; conditions: rat, MES, i.p.; cited from earlier work
[2] = rat, in vivo
[3] = in vivo; conditions: Sprague Dawley, rat, ip
[4] = tested on: adult CF-1 mice; assay: Maximal electroshock; assay type: in vivo, mouse; conditions: MES
[5] = in vivo; conditions: CF-1, mouse, ip
[6] = in vivo; conditions: Sprague Dawley, rat, ip; remark: listed apart in the source
[7] = CF-1, mouse, in vivo
[8] = in vivo; conditions: CF-1, mouse, ip; remark: listed apart in the source
[9] = tested on: rats; conditions: rat, cited from earlier work
[10] = CF-1, mouse, in vivo; remark: listed apart in the source
[11] = Sprague Dawley, rat, in vivo
[12] = tested on: mice; conditions: mouse, cited from earlier work
[13] = tested on: adult CF-1 mice; conditions: mouse, MES, i.p.; cited from earlier work
[14] = tested on: adult Sprague-Dawley rats; assay: Maximal electroshock; assay type: in vivo, rat; conditions: MES; for Efficacy in rats (number seizure protected /number tested): low dose i.p. (CLB 17, CBZ 3, VPA 165 mg/kg)
[15] = tested on: adult male CF-1 mice; conditions: mouse, 6 Hz 44 mA, i.p.; cited from earlier work
[16] = Brain pharmacokinetics in mice
[17] = Brain pharmacokinetics in rats; conditions: rat
[18] = Plasma pharmacokinetics in rats; conditions: Sprague Dawley, rat, in vivo, ip
[19] = Plasma pharmacokinetics in mice; conditions: CF-1, mouse, in vivo, ip
[20] = tested on: adult male CF-1 mice; assay: 6 Hz 44 mA seizure test in mice; assay type: in vivo, mouse
[21] = mouse, low dose i.p.: CLB 7, CBZ 7, VPA 260, LEV 20 mg/kg
[22] = low dose i.p.: CLB 17, CBZ 3, VPA 165, LEV 14 mg/kg

## NC(=O)N1c2ccccc2C=Cc2ccccc21 [CBZ, carbamazepine]
[1]
  ED50 - low dose: 3 mg/kg
[2]; Sprague Dawley
  Plasma Dose Prop (AUC): 2.29
  Plasma Dose Prop (Cmax): 1.138
[2]; Sprague Dawley, ip
  Plasma t1/2: 70.8 min
[2]
  High-dose concentrations relative to expected from low-dose: approximately two-fold
[3]
  Tmax: 15 min
[3]; Brain t1/2
  half-life: 46.2 min
[4]; high dose i.p. (CBZ 40 mg/kg), time test 0.25 h
  Efficacy in mice (number seizure protected/number tested): 4/4
[4]; high dose i.p. (CBZ 40 mg/kg), time test 0.5 h
  Efficacy in mice (number seizure protected/number tested): 4/4
[4]; high dose i.p. (CBZ 40 mg/kg), time test 1 h
  Efficacy in mice (number seizure protected/number tested): 4/4
[4]; high dose i.p. (CBZ 40 mg/kg), time test 2 h
  Efficacy in mice (number seizure protected/number tested): 4/4
[4]; high dose i.p. (CBZ 40 mg/kg), time test 4 h
  Efficacy in mice (number seizure protected/number tested): 4/4
[4]; high dose i.p. (CBZ 40 mg/kg), time test 8 h
  Efficacy in mice (number seizure protected/number tested): 0/4
[4]; low dose i.p. (CBZ 7 mg/kg), time test 0.25 h
  Efficacy in mice (number seizure protected/number tested): 3/4
[4]; low dose i.p. (CBZ 7 mg/kg), time test 0.5 h
  Efficacy in mice (number seizure protected/number tested): 3/4
[4]; low dose i.p. (CBZ 7 mg/kg), time test 1 h
  Efficacy in mice (number seizure protected/number tested): 2/4
[4]; low dose i.p. (CBZ 7 mg/kg), time test 2 h
  Efficacy in mice (number seizure protected/number tested): 0/4
[4]; low dose i.p. (CBZ 7 mg/kg), time test 4 h
  Efficacy in mice (number seizure protected/number tested): 0/4
[4]; low dose i.p. (CBZ 7 mg/kg), time test 8 h
  Efficacy in mice (number seizure protected/number tested): 0/4
[4]; mice, high dose CBZ 40 mg/kg i.p.
  Seizure protection (in words): complete protection
[5]
  Tmax: 15 min
[5]; Brain t1/2
  half-life: 31.2 min
[6]
  Tmax: 15 min
[6]; Plasma t1/2
  half-life: 49.2 min
[7]
  Brain Dose Prop (AUC): 1.64
[7]; ip
  Brain t1/2: 59.4 min
[8]
  Tmax: 15 min
[8]; Plasma t1/2
  half-life: 78 min
[9]; in vivo, ip
  TD50 - high dose: 24 mg/kg
[10]
  High-dose exposures greater than expected from low-dose: 50 - 60%
  Plasma Dose Prop (AUC): 1.49
  Plasma Dose Prop (Cmax): 0.917
[10]; ip
  Plasma t1/2: 66.6 min
[11]
  Brain Dose Prop (AUC): 1.89
[11]; ip
  Brain t1/2: 72 min
[12]; in vivo, ip
  TD50 - high dose: 40 mg/kg
[13]
  ED50 - low dose: 7 mg/kg
[14]; time test 0.25 h
  Efficacy in rats (number seizure protected /number tested): 1/4
[14]; time test 0.5 h
  Efficacy in rats (number seizure protected /number tested): 1/4
[14]; time test 1 h
  Efficacy in rats (number seizure protected /number tested): 0/4
[14]; time test 2 h
  Efficacy in rats (number seizure protected /number tested): 0/4
[14]; time test 4 h
  Efficacy in rats (number seizure protected /number tested): 0/4
[14]; time test 8 h
  Efficacy in rats (number seizure protected /number tested): 0/4
[14]; rats, high-dose CBZ i.p.
  Period for which 100% seizure protection was sustained: ~ 2 hrs
  Seizure protection: 100%
[14]; rats, low-dose CBZ i.p., within the first hour
  Seizure protection (% protected): 25%

## CN1C(=O)CC(=O)N(c2ccccc2)c2cc(Cl)ccc21 [CLB, Clobazam]
[1]
  ED50 - low dose: 17 mg/kg
[15]
  ED50 - low dose: 7 mg/kg
[16]; CF-1, mouse, in vivo, ip
  Tmax: 15 min
[16]; [21]
  Brain AUC (0-8 hr): 1.74 ng·h/mg
  Brain Cmax: 2.26 ng/mg
  Brain Cmin: 0.014 ng/mg
[17]; Sprague Dawley, in vivo, ip
  Tmax: 15 min
[17]; [22]
  Brain AUC (0-8 hr): 2.88 ng·h/mg
  Brain Cmax: 2.90 ng/mg
  Brain Cmin: 0.027 ng/mg
[18]
  Tmax: 15 min
[19]
  Tmax: 15 min
[9]; minimum motor impairment test, i.p.
  TD50 - high dose: 37 mg/kg
[20]; high dose i.p. (CLB 17, VPA 570, LEV 500 mg/kg), time test 0.25 h
  Efficacy in mice (number seizure protected/number tested): 4/4
[20]; high dose i.p. (CLB 17, VPA 570, LEV 500 mg/kg), time test 0.5 h
  Efficacy in mice (number seizure protected/number tested): 4/4
[20]; high dose i.p. (CLB 17, VPA 570, LEV 500 mg/kg), time test 1 h
  Efficacy in mice (number seizure protected/number tested): 3/4
[20]; high dose i.p. (CLB 17, VPA 570, LEV 500 mg/kg), time test 2 h
  Efficacy in mice (number seizure protected/number tested): 3/4
[20]; high dose i.p. (CLB 17, VPA 570, LEV 500 mg/kg), time test 4 h
  Efficacy in mice (number seizure protected/number tested): 1/4
[20]; high dose i.p. (CLB 17, VPA 570, LEV 500 mg/kg), time test 8 h
  Efficacy in mice (number seizure protected/number tested): 0/4
[20]; low dose i.p. (CLB 7, VPA 260, LEV 20 mg/kg), time test 0.25 h
  Efficacy in mice (number seizure protected/number tested): 2/4
[20]; low dose i.p. (CLB 7, VPA 260, LEV 20 mg/kg), time test 0.5 h
  Efficacy in mice (number seizure protected/number tested): 1/4
[20]; low dose i.p. (CLB 7, VPA 260, LEV 20 mg/kg), time test 1 h
  Efficacy in mice (number seizure protected/number tested): 3/4
[20]; low dose i.p. (CLB 7, VPA 260, LEV 20 mg/kg), time test 2 h
  Efficacy in mice (number seizure protected/number tested): 0/4
[20]; low dose i.p. (CLB 7, VPA 260, LEV 20 mg/kg), time test 4 h
  Efficacy in mice (number seizure protected/number tested): 0/4
[20]; low dose i.p. (CLB 7, VPA 260, LEV 20 mg/kg), time test 8 h
  Efficacy in mice (number seizure protected/number tested): 0/4
[12]; rotarod test, i.p.
  TD50 - high dose: 17 mg/kg
[14]; time test 0.25 h
  Efficacy in rats (number seizure protected /number tested): 0/4
[14]; time test 0.5 h
  Efficacy in rats (number seizure protected /number tested): 0/4
[14]; time test 1 h
  Efficacy in rats (number seizure protected /number tested): 0/4
[14]; time test 2 h
  Efficacy in rats (number seizure protected /number tested): 0/4
[14]; time test 4 h
  Efficacy in rats (number seizure protected /number tested): 0/4
[14]; time test 8 h
  Efficacy in rats (number seizure protected /number tested): 0/4
[14]; rats, high dose i.p. (CLB 37, VPA 315 mg/kg)
  Seizure protection (in words): seizure protection was observed within the first hour
[14]; rats, low dose i.p. (CLB 17, VPA 165 mg/kg)
  Seizure protection (in words): did not protect
